In patent US20250127933A1, “Method of verifying effectiveness and stability of linker in Drug Delivery system and Structure therefor” (INDUSTRY-ACADEMIC COOPERATION FOUNDATION OF SUNCHON …, priority 2023, published 2025):

Experiments:
[1] = pH-dependent stability test; format: physicochemical; conditions: 1 μM probe, pH 2 to 12, 25° C.
Experimental: Thermal stability was evaluated by the incubation of 1 μM of the probe in PBS buffer (pH 7.4) at different temperatures ranging from 25 to 45° C. for 20 min and reading fluorescence at each temperature. The pH stability test was performed by the incubation with 1 μM probe in different pH buffers (2 to 13) at 25° C. and recording fluorescence at each pH.

[2] = target: T1, Leucine aminopeptidase (LAP) (Sus scrofa, UniProt P15145); experiment: Selectivity test against various bioanalytes; format: biochemical, porcine; conditions: 1 μM probe, 1 mM analytes or 1 U/mL enzymes, 0.05 U/mL LAP, PBS pH 7.4, 37° C., 1 h
T1 construct: purchased Sigma-Aldrich; host or cells: porcine kidney (tissue-derived enzyme)
T1 sequence (P15145 33-963 limits assumed): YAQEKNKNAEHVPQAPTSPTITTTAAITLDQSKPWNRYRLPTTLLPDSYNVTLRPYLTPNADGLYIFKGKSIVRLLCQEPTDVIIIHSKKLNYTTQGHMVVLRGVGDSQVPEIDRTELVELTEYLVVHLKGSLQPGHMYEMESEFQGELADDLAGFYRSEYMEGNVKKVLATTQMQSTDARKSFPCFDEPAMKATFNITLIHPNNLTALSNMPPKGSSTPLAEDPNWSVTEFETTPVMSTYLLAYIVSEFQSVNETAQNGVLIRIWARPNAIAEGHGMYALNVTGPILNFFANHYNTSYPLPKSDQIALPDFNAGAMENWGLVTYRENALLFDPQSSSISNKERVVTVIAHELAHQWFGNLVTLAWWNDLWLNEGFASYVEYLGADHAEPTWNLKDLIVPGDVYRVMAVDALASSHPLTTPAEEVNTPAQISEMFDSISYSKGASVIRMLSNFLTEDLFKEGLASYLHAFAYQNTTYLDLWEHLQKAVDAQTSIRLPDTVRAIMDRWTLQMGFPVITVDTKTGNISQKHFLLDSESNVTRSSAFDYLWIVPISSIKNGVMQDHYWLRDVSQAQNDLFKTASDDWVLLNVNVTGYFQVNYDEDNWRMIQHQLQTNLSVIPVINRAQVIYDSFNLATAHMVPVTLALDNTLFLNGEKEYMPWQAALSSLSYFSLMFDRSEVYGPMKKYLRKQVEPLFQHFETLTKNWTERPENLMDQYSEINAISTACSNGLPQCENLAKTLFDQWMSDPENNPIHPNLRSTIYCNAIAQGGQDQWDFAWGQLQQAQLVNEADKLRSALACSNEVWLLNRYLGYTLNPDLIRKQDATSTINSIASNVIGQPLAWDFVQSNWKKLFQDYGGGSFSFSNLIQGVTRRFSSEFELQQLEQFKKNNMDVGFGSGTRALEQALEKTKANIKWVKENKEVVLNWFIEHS
Experimental: 1 μM of probe was incubated with various bioanalytes containing 1 mM of NaOCl, H2O2, CaCl2), ZnCl2, KCl, NaCl, GSH, vitamin C, L-cystein, L-arginine, L-alanine and 1 U/mL of α-amylase, lysozyme, cellulase under 0.05 U/mL of LAP in PBS (10 mM, pH 7.4) at 37° C. for 1 h. The fluorescence was recorded on Synergy™ H1 microplate reader.

[3] = Ex vivo plasma stability in mice serum; format: in vitro ADME, C57BL/6 mice; conditions: 10 μM probe; for time-dependent fluorescence emission in serum: C57/BL6 mice serum; for % survival rate of probe in serum: C57BL/6 mice serum, 37° C.
Experimental: Animal was treated strictly according to the guidelines for laboratory animal care and use issued by the Sunchon National University Institutional Animal Care and Use Committee (SCNU IACUC). Female C57/BL6 mice (7 weeks old), weighing about 17-20 g, were purchased from Orientbio (Orientbio Inc., Seongnam, Korea). Blood was collected from the posterior orbital plexus in normal mice and centrifuged (5000 rpm, 4° C., 5 minutes) to obtain serum. The stability study was performed by incubation of the fluorescent probe (10 μM) or rhodol fluorophore (0.1, 0.3, 1, 3 and 10 μM) with serum at 37° C. . . . The fluorescence was detected on Synergy™ H1 microplate reader.

[4] = tested on: Leucine aminopeptidase (LAP); experiment: Enzymatic kinetic study of LAP reaction of activatable fluorescent probes; format: biochemical, porcine; conditions: 1 μM probe; LAP 1, 5, 10, 20, 50, 100 μg/mL; PBS pH 7.4, 80 min, 37° C.
[5] = tested on: Leucine aminopeptidase (LAP); experiment: as above; format: biochemical, porcine; conditions: for Fluorophore released in LAP reaction (concentration): calculated from fluorophore calibration curves
Experimental: All spectroscopic readings were measured with BioTek Synergy™ H1 spectrophotometer, using 96 well microplate. A parent stock solution of probes was dissolved in DMSO to obtain 10 mM. Leucine aminopeptidase was dissolved in deionized water to obtain 1 mg/mL. All spectra measurements were carried out in PBS buffer solution (PBS buffer, 10 mM, pH 7.4, 37° C. The final volume in 96 well microplate was adjusted to 200 μL. RPMI 1640 was obtained from Thermo Scientific (Waltham, MA, USA). Bestatin hydrochloride (LAP inhibitor), DMSO and 2-mercaptoethanol were purchased from Sigma Aldrich (St. Louis, Mo, USA).
The kinetic study for LAP reaction was performed by incubation of 2 μg of LAP ([…]) with 1 μM probe in PBS buffer (10 mM, pH 7.4). The plate was incubated at 37° C. for 80 min with continuous shaking, and the emission spectra were recorded at the corresponding wavelength over time. A solution of LAP (2 μg/200 μL) was pretreated with bestatin (0, 1, 10, 50 and 100 μM) in PBS (10 mM, pH 7.4) at 37° C. for 30 min, and then 1 μM of probe was added. The mixture was incubated at 37° C., and the fluorescence was recorded on Synergy™ H1 using a 96-well microplate.
All reagents and solvents were obtained from commercial sources Sigma-Aldrich Chemical Co., Combi-Block, Tokyo Chemical Industries, Daejung Chemicals, and Alfa Aesar and used without purification. Anhydrous solvents were purchased from Sigma-Aldrich and used under dry nitrogen atmosphere. Ultrapure water was obtained from a water ultra-purification system. Completion of reaction was confirmed by thin layer chromatography (TLC) on Kiesegel 60F254 from Merck and all synthesized compounds were purified by flash column chromatography using ZEOprep 60 (40-63) […] silica gel from ZEOCHEM. ^1H and ^13C NMR spectra were measured on JEOL JNMECZ400s/L1 (400 MHZ) and CDCl3 or DMSO-d6 was used as the NMR solvents. The chemical shifts were quoted in parts per million (ppm) and the coupling constant (J) were reported in hertz unit (Hz). Chemical shifts (in ppm) were referenced to tetramethylsilane (δ=0 ppm) in CDCl3 as an internal standard. ^13C NMR spectra were reported in ppm referenced to the center line of the triplet at 77.0 ppm for CDCl3 or 39.5 ppm for DMSO-d6. All in vitro enzyme assays were performed by taking the absorbance and emission on Synergy™ H1 microplate reader from BioTek. Leucine aminopeptidase from porcine kidney and other enzymes were purchased from Sigma-Aldrich.

HepG2 cells [6] = experiment: Confocal live cell imaging in HepG2 cells; format: cell-based
Experimental: HepG2 cells were maintained in DMEM medium containing 10% FBS and 1% antibiotics in the 15 μ-plate 96 well black (ibidi, Germany). HepG2 cells were incubated with or without 500 μM of bestatin, LAP inhibitor, for 1 h and subsequently treated with 1 μM of probe and Lyso-Tracker™ Red (Thermo Scientific, USA) for 1 h. The treated cells were washed three times with PBS and treated with 10 μM of DAPI (Thermo Scientific, USA) for 2 h. Imaged were collected by Leica confocal microscopy (TCS SP5 AOBS/Tandem, Leica, Germany). Lyso-Tracker™ Red was excited by 514 nm and detected by 570-620 nm, compounds were excited by 476 nm and detected by 505-545 nm, DAPI was excited by 405 nm and detected by 420-470 nm.

[7] = tested on: Leucine aminopeptidase (LAP); experiment: Competitive assay with LAP inhibitor bestatin; format: biochemical, porcine; conditions: bestatin pretreatment 0, 1, 10, 50, 100 μM; LAP 10 μg/mL; PBS pH 7.4, 37° C.
HepG2 cells [8] = experiment: Kinetic and competitive study in HepG2 cells; format: cell-based; conditions: bestatin pretreatment 0, 10, 100 μM; Rhodo-P2 2.0 μM
Experimental: HepG2 cells (3×10^4 cells/well) were seeded in black-walled, transparent bottomed 96-well plates and cultured overnight. […] Kinetic study was performed in Synergy™ H1 microplate reader.

[9] = 1 μM probe, 10 μg/mL LAP, PBS pH 7.4, 37° C., 80 min

Compound | pH-dependent stability (fluorescence of fluorophore released by degradation) [1] | selectivity for LAP over other bioanalytes (fluorescence response) [2] | time-dependent fluorescence emission in serum ([3]; 48 h) | % survival rate of probe in serum ([3]; 48 h) [%] | LAP response at various concentrations of LAP [4] | Fluorophore released in LAP reaction (% yield) [5, 9] [%] | Fluorophore released in LAP reaction (concentration) [5, 9] [µM] | LAP response / fluorophore release (in words) ([5]; LAP reaction, enzymatic study) | % survival rate of probe in serum ([3]; 4 h p.i.) [%] | kinetics of LAP reaction (time-dependent fluorescence emission) [5, 9] | lysosomal colocalization in confocal live cell imaging (HepG2 cells [6]; 1 μM probe, LysoTracker Red DND-99, DAPI, HepG2 cells) | inhibition of LAP reaction of Rhodo-P2 (fluorescence emission) [7] | inhibition of Rhodo-P2 response in HepG2 cells (HepG2 cells [8]) | effect of bestatin on probe fluorescence in confocal live cell imaging (HepG2 cells [6]; bestatin 500 μM pretreatment for 1 h, Rhodo-P1 1 μM)
COc1ccc2c(c1)Oc1cc(NC(=O)OCc3ccc(NC(=O)[C@@H](N)CC(C)C)cc3)ccc1C21OC(=O)c2ccccc21 (stereo partly drawn) [Probe 4, 4-((S)-2-Amino-4-methylpentanamido)benzyl methoxy-3-oxo-3H-spiro[isobenzofuran-1,9′-xanthen]-6′-(3′-yl)carbamate] | no change in fluorescence emission according to the change in pH | most biocompatible in selectivity tests as well as pH and thermal stability tests | fluorescence emission with a gentle increasing slope | 48 | nearly maximal responses at 10 μg/mL of LAP | 76.9 | ~0.769 | high yields of LAP reactions |  |  |  |  |  | 
COc1ccc2c(c1)Oc1cc(NC(=O)[C@@H](N)CC(C)C)ccc1C21OC(=O)c2ccccc21 (stereo partly drawn) [Probe 2, (2S)-2-Amino-N-(3′-methoxy-3-oxo-3H-spiro[isobenzofuran-1,9′-xanthen]-6′-yl)-4-methylpentanamide] | increased fluorescence emission in the pH range of 7-9 |  | rapidly increased | 39 | nearly maximal responses at 10 μg/mL of LAP | 89.7 | ~0.897 |  | 45 | faster kinetics than those of the corresponding P2 and P3 probes | colocalized into lysosomes with LysoTracker |  |  | 
CC(C)C[C@H](NC(=O)[C@@H](O)[C@H](N)Cc1ccccc1)C(=O)O [bestatin] |  |  |  |  |  |  |  |  |  |  |  | reduced fluorescence emission by released fluorophores in a concentration-dependent manner | concentration-dependent inhibition of Rhodo-P2 | only showed blue staining by DAPI without green fluorescence from the LAP probe
